Data: patent US5731345A, “Seco-D steroids active on the cardiovascular system and pharmaceutical compositions containing same” (Sigma-Tau Industrie Farmaceutiche Riunite S.p.A, priority 1995, dated 1998)
Read-outs that look alike come from different tables or passages of the source.

Experiments:
[1] = tested on: spontaneous hypertensive rats (MHS); assay: prevention of development of hypertension in pre-hypertensive rats, indirect tail-cuff plethysmography (SBP and HR); type: in vivo, rat; details: 5 week treatment, 20 mg/kg/os daily in 0.5% w/v Methocel; for SBP: controls 172+/-5.0; for HR: controls 380+/-6.3
Method: Systolic blood pressure (SBP) and heart rate (HR) were measured by an indirect tail-cuff plethysmographic method in […] pre-hypertensive male rats, (MHS or SHR), i.e. before hypertension onset so as to register the basal value of SBP. The rats were then subdivided in groups of 7 animals each and the groups were divided in control and treated group. The compound, suspended in 0.5% (w/v) Methocel, was orally administered daily for at least five weeks. The control group received only Methocel.
SBP and HR were measured weekly, 6 and 24 hours after the treatment.
After five weeks of treatment, when the hypertension was fully developed in the control group ([…]) a one-week wash-out was conducted in order to verify whether SBP would remain low or restored to the basal values of the control group.

Na^+, K^+ -ATPase [2] = biological target: T1, Na^+, K^+ -ATPase (Canis lupus familiaris, UniProt P50997); assay: displacement of specific ^3 H-oubain binding from purified Na^+, K^+ -ATPase receptor
T1 construct: from tissue
Text: (§1) To test the affinity for the receptor site of the Na^+, K^+ -ATPase and the agonist or inhibitory activity on the enzyme, the following tests were used:
a) displacement of the specific ^3 H-oubain binding from the Na^+, K^+ -ATPase receptor purified according to Jorghensen (Jorghensen P., BBA, 1974, 356, 36) and Erdamnn (Erdmann E. et al., Arzneim. Forsh, 1984, 34, 1314);

Na^+, K^+ -ATPase [3] = type: biochemical; details: purified Na^+, hydrolysis of ^32 P-ATP
Text: as §1
b) inhibition of the activity of the purified Na^+, K^+ -ATPase measured as % of hydrolysis of ^32 P-ATP in the presence and in the absence of the tested compound (Doucet A. et al., Am. J. Physiol., 1986, 251, F851).

Question: With `CC[C@H](c1ccoc1)[C@@]1(C)CC[C@H]2[C@@H](CC[C@@H]3C[C@@H](O)CC[C@@]32C)[C@@H]1O` [Comp. I-a, 17β-(3-furyl)-14,15-seco-5βandrostan-3β,14β-diol] as the compound, how does the SBP [1] read?
Answer: The SBP was 155+/-4.3 mm Hg.

Question: And the HR [1]?
Answer: Its HR is 370+/-10.5 beats/min.

Question: With `CC[C@H](C1=CC(=O)OC1)[C@@]1(C)CC[C@H]2[C@@H](CC[C@@H]3C[C@@H](O)CC[C@@]32C)[C@@H]1O` [Comp. I-e, 3β,14β-dihydroxy-14,15-seco-5β-card-20(22)-enolide] as the compound, how does the IC50 (Na^+, K^+ -ATPase [2]) read?
Answer: Its IC50 is 126 nM.

Question: What about the “Inhibitory activity -log IC50” value (Na^+, K^+ -ATPase [3]) of the same compound?
Answer: The value was 5.1.

Question: What does the source list for `CN(C)CCO/N=C\C[C@H](C1=CC(=O)OC1)[C@@]1(C)CC[C@H]2[C@@H](CC[C@@H]3C[C@@H](O)CC[C@@]32C)C1=O` [Comp. I-l, 3β-hydroxy-14-oxo-14,15-seco-5β-card-20(22)-enolide-15(2-dimethylaminoethoxy-(Z)-imino)]?
Answer: IC50 (Na^+, K^+ -ATPase [2]): 3980 nM; Inhibitory activity -log IC50 (Na^+, K^+ -ATPase [3]): 4.2

Question: Which SBP [1] does the source give for `CC[C@H](C1=CC(=O)OC1)[C@@]1(C)CC[C@H]2[C@@H](CC[C@@H]3C[C@@H](O)CC[C@@]32C)C1=O` [Comp. I-d, 3β-hydroxy-14-oxo-14,15-seco-5β-card-20(22)-enolide] here?
Answer: Its SBP is 156+/-4.6 mm Hg.

Question: What about the HR [1] of the same compound?
Answer: Its HR is 383+/-11.4 beats/min.

Question: And the IC50 (Na^+, K^+ -ATPase [2])?
Answer: Its IC50 is 200 nM.

Question: And the “Inhibitory activity -log IC50” value (Na^+, K^+ -ATPase [3])?
Answer: Its value is 5.6.

Question: With `C[C@]12CC[C@H](O)C[C@H]1CC[C@H]1C(=O)[C@@](C)([C@H](C/C=N/NC(=N)N)C3=CC(=O)OC3)CC[C@@H]12` [Comp. I-m, 3β-hydroxy-14-oxo-14,15-seco-5β-card-20(22)enolide-15-(E)-(guanidinoimino)] as the compound, how does the IC50 (Na^+, K^+ -ATPase [2]) read?
Answer: The IC50 was 3160 nM.

Question: And the “Inhibitory activity -log IC50” value (Na^+, K^+ -ATPase [3])?
Answer: Its value is 4.1.

Question: Which results are given for `CN(C)CCO/N=C/C[C@H](C1=CC(=O)OC1)[C@@]1(C)CC[C@H]2[C@@H](CC[C@@H]3C[C@@H](O)CC[C@@]32C)C1=O` [Comp. I-i, 3β-hydroxy-14-oxo-14,15-seco-5β-card-20(22)-enolide-15-(2-dimethylaminoethoxy-(E)-imino)]?
Answer: IC50 (Na^+, K^+ -ATPase [2]): 2510 nM; Inhibitory activity -log IC50 (Na^+, K^+ -ATPase [3]): 4.0

Question: What does the source list for `C[C@]12CC[C@H](O)C[C@H]1CC[C@H]1[C@H](O)[C@@](C)([C@H](CC#N)C3=CC(=O)OC3)CC[C@@H]12` [Comp. I-h, 3β,14β-dihydroxy-14,15-seco-5β-card-20(22)-enolide-15-nitrile]?
Answer: SBP [1]: 160+/-7.8 mm Hg; HR [1]: 377+/-10.5 beats/min.

Question: With `CC[C@H](c1ccoc1)[C@@]1(C)CC[C@H]2[C@@H](CC[C@@H]3C[C@@H](O)CC[C@@]32C)C1=O` [Comp. I-c, 17β-(3-furyl)-14-oxo-14,15-seco-5β-androstan-3β-ol] as the compound, how does the IC50 (Na^+, K^+ -ATPase [2]; purified Na^+, K^+ -ATPase receptor, read-out: Binding ^3 H-oubain displacement -log IC50 (converted)) read?
Answer: The IC50 was 6310 nM.

Question: What about the “Inhibitory activity -log IC50” value (Na^+, K^+ -ATPase [3]) of the same compound?
Answer: Its value is 4.3.
